Details: Liquid

COC [dimethyl ether]
Details | vapor or sublimation pressure [kPa]
278.25 K | 317.6
283.2 K | 373.6
288.19 K | 437.4
293.2 K | 509.4
298.19 K | 589.6
303.18 K | 679.2
303.19 K | 678.1
308.19 K | 778.7
313.2 K | 888.8
318.19 K | 1009.5
323.28 K | 1144.5
323.37 K | 1146.2
328.25 K | 1289.2
333.23 K | 1447.2
338.23 K | 1619.9
343.18 K | 1805.3
343.41 K | 1814.4
347.42 K | 1976.8
348.17 K | 2007.3
351.44 K | 2149.6
353.1 K | 2224.5
353.45 K | 2240
355.08 K | 2315.6
355.46 K | 2333.3
357.49 K | 2429.5
359.49 K | 2528.5
360.52 K | 2579.1

FCC(F)(F)F [1,1,1,2-tetrafluoroethane]
Details | vapor or sublimation pressure [kPa]
277.22 K | 339.5
279.24 K | 364
281.25 K | 389.7
283.24 K | 416.7
285.26 K | 445.4
287.27 K | 475.4
289.27 K | 506.9
291.29 K | 539.9
293.31 K | 575.1
295.3 K | 610.8
297.32 K | 649.3
299.21 K | 685.5
299.31 K | 688.7
299.34 K | 689.4
301.19 K | 726.7
301.3 K | 730
303.06 K | 767
303.19 K | 769.8
303.31 K | 773.5
305.33 K | 819.1
307.34 K | 866.6
309.35 K | 916
311.35 K | 967.3
313.31 K | 1019.3
315.36 K | 1076.9
317.32 K | 1133
319.38 K | 1195.5
321.34 K | 1256.1
329.37 K | 1532.3
335.39 K | 1767.4
337.41 K | 1851.9
339.41 K | 1939.2
341.43 K | 2029.5
343.43 K | 2123
347.44 K | 2319.8
349.46 K | 2419.4
351.46 K | 2530.3
353.48 K | 2641.1
355.48 K | 2755.4
360.48 K | 3054.3
